Measurements published in patent US3970648A, “2-[2-(5-Nitro-2-furyl)vinyl]-4-(anilino)quinazolines” (Diamond Shamrock Corporation, priority 1974, dated 1976).

What was measured:
Assay type in all cases: in vivo, broiler cross chicks
[1] = Growth promotion and feed efficiency in chicks, Example VII (Table I); conditions: for Average 4 Week Performance: Feed Efficiency / Average 4 Week Performance: Gain / Improved Response Over Basal Ration + Bacitracin: Feed Efficiency / Improved Response Over Basal Ration + Bacitracin: Gain: 200 g/T in basal ration + bacitracin (4 g/T), 4 weeks; for significance of improved feed efficiencies (level of probability) / significance of improved weight gains (level of probability): 200 g/T, analysis of variance
Description: One hundred 20 day-old broiler cross chicks were weight equalized into 15 groups of eight chicks each and placed in battery brooders. The 40 chick treatment groups (five replicates) were fed the one of the three rations described below for a 4 week period. Weekly measurements of body weights and feed consumption were made by replicate, and these measurements used to calculate weight gain and feed efficiency.
The commercial type broiler starter basal ration which was used in this study was designated as the Basal Ration, and had the following composition:
The preceding basal ration was mixed with bacitracin at a level of 4 g/T as the only growth stimulant to simulate commercial practice. This mixture was designated as the Basal Ration + Bacitracin (4 g/T) and constituted the negative control in this study.
A second ration was prepared by fortifying the Basal Ration + bacitracin described above with the Product from Example I above at a level of 200 g/T, and was designated as Basal Ration + Bacitracin + Product of Example I (200 g/T). A third ration was prepared by fortifying the Basal Ration + bacitracin described above with chlortetracycline (CTC) at a level of 200 g/T, and was designated as Basal Ration + Bacitracin + Chlortetracycline (200 g/T). Chlortetracycline served as the positive control in this test because it had shown strong growth promotion in numerous previous tests at this therapeutic level.
The commercial value of the product of Example I is indicated by the fact that these significant responses were obtained in addition to the growth stimulation provided by the presence of bacitracin in the ration. It is important to note that the negative controls in this example and in Examples VIII and X which follow were characterized by rapid rates of growth. This high plane of growth and feed efficiency performance on the part of the negative controls makes the responses to the test compounds all the more meaningful.
The term "growth promotion" is used herein to describe the beneficial effect of a compound in eliciting a more rapid rate of weight gain when compared to the weight gain of control animals not fed the compound. "Feed efficiency" is a term regularly used in animal husbandry and is a measure of the pounds of feed required to produce a pound of gain in the weight of the animal. A lower mathmatical value for feed efficiency reflects improved performance. […] In this case, as in the case of the weight gain (fifth column), an improved performance is indicated by a higher positive number.

[2] = Growth promotion in chicks at low feed levels, Example VIII (Table II); conditions: for Average 4 Week Performance: Feed Efficiency / Average 4 Week Performance: Gain / Improved Response Over Basal Ration: Feed Efficiency / Improved Response Over Basal Ration: Gain: 10 g/T in basal ration, 4 weeks
Description: Day old broiler cross chicks were weight equalized into groups of eight chicks each and were placed in battery brooders. The 32 chick treatment groups (four replicates) were fed one of the five rations described below for a 4 week period. Weekly measurements of body weights and feed consumption were made by replicate, and these measurements used to calculate weight gain and feed efficiency.
The basal ration was the basal ration used in Example VII above. The remaining five rations were obtained by mixing the indicated quantities of bacitracin (4 g/T), chlortetracycline (10 g/T), product of Example I (10 g/T), and product of Example III of U.S. Pat. No. 3,542,784 -- Burch (10 g/T) as growth promotants with the basal ration.

[3] = Growth promotion in chicks, titration dosage, Example IX (Table III)
Description: The concentrations used in this test were 6.25, 12.5, 25, 50, 100, 200 and 400 g of the Product of Example I per ton of the Basal Ration described in Example VII above. The same number and size chick treatment groups were used in this test as in Example VIII above.

[4] = Growth promotion in chicks at 25 g/T, Example X (Table IV); conditions: 25 g/T
Description: (§1) This example compares growth promotion activity of the product of Example I with other growth promotants at a concentration of 25 g/T in the Basal Ration described in Example VII. The other growth promotants include the product described in Example I of U.S. Pat. No. 3,542,784 -- Burch and quinoxaline-1,4-dioxide. Day old broiler cross chicks were weight equalized into groups of eight chicks each, and four replicates of eight chicks each were fed the experimental rations over a 4 week period.

[5] = Growth promotion in chicks, Example XI (Table V); conditions: for feed efficiency (in words) / growth rate (in words): 25 g/T; for Average 4 Week Performance: Feed Efficiency / Average 4 Week Performance: Gain / Improved Response Over Basal Ration: Feed Efficiency / Improved Response Over Basal Ration: Gain: 4 weeks
Description: as §1
The growth promotion tests described in Example X were repeated with the exception that five replicates of eight chicks each were fed the formulations described in Table V for 4 weeks.

[6] = Growth promotion in chicks, Example XII first set (Table VI); conditions: for Average 4 Week Performance: Feed Efficiency / Average 4 Week Performance: Gain / Improved Response Over Basal Ration: Feed Efficiency / Improved Response Over Basal Ration: Gain: 25 g/T in basal ration, 4 weeks; for growth rate / feed efficiency, production parameters (in words): 25 g/T, first set of tests
Description: as §1, with “period. […]” for “period.”

[7] = Growth promotion in chicks, Example XII repeat (Table VII); conditions: for Average 4 Week Performance: Feed Efficiency / Average 4 Week Performance: Gain / Improved Response Over Basal Ration: Feed Efficiency / Improved Response Over Basal Ration: Gain: 25 g/T in basal ration, 4 weeks
Description: as §1
The growth promotion tests described in Example X were repeated with the additional testing the products of Examples II and III.

[8] = 25 g/T combined with bacitracin 25 g/T

Compound: O=[N+]([O-])c1ccc(C=Cc2nc(Nc3ccc(O)cc3)c3ccccc3n2)o1 [Example I, 2-[2-(5-nitro-2-furyl)vinyl]-4-(p-hydroxyanilino)quinazoline]
- Average 4 Week Performance: Feed Efficiency [1]: 1.597
- Average 4 Week Performance: Gain [1]: 739.8 gms
- Improved Response Over Basal Ration + Bacitracin: Feed Efficiency [1]: +7.2%
- Improved Response Over Basal Ration + Bacitracin: Gain [1]: +6.5%
- significance of improved feed efficiencies (level of probability) [1]: 99.9%
- significance of improved weight gains (level of probability) [1]: 99.5%
- Average 4 Week Performance: Feed Efficiency [2]: 1.671
- Average 4 Week Performance: Gain [2]: 750.7 g
- Improved Response Over Basal Ration: Feed Efficiency [2]: +5.1%
- Improved Response Over Basal Ration: Gain [2]: +4.2%
- growth promotion (in words) ([2]; 10 g/T, compared with other growth promotants of the test): greater growth promotion than any of the other growth promotants used in this test
- Average 4 Week Performance: Feed Efficiency ([3]; 6.25 g/T): 1.657
- Average 4 Week Performance: Gain ([3]; 6.25 g/T): 714.6 g
- Improved Response Over Basal Ration: Feed Efficiency ([3]; 6.25 g/T): +3.4%
- Improved Response Over Basal Ration: Gain ([3]; 6.25 g/T): -3.4%
- activity (in words) ([3]; 6.25 g/T): little or no activity
- Average 4 Week Performance: Feed Efficiency ([3]; 12.5 g/T): 1.652
- Average 4 Week Performance: Gain ([3]; 12.5 g/T): 765.3 g
- Improved Response Over Basal Ration: Feed Efficiency ([3]; 12.5 g/T): +3.7%
- Improved Response Over Basal Ration: Gain ([3]; 12.5 g/T): +3.4%
- Average 4 Week Performance: Feed Efficiency ([3]; 25 g/T): 1.603
- Average 4 Week Performance: Gain ([3]; 25 g/T): 805.7 g
- Improved Response Over Basal Ration: Feed Efficiency ([3]; 25 g/T): +6.5%
- Improved Response Over Basal Ration: Gain ([3]; 25 g/T): +8.9%
- Average 4 Week Performance: Feed Efficiency ([3]; 50 g/T): 1.609
- Average 4 Week Performance: Gain ([3]; 50 g/T): 785.3 g
- Improved Response Over Basal Ration: Feed Efficiency ([3]; 50 g/T): +6.2%
- Improved Response Over Basal Ration: Gain ([3]; 50 g/T): +6.1%
- Average 4 Week Performance: Feed Efficiency ([3]; 100 g/T): 1.663
- Average 4 Week Performance: Gain ([3]; 100 g/T): 742.7 g
- Improved Response Over Basal Ration: Feed Efficiency ([3]; 100 g/T): +3.0%
- Improved Response Over Basal Ration: Gain ([3]; 100 g/T): +0.4%
- weight gain improvement (in words) ([3]; 100 g/T): unexplained absence of weight gain improvement
- Average 4 Week Performance: Feed Efficiency ([3]; 200 g/T): 1.609
- Average 4 Week Performance: Gain ([3]; 200 g/T): 782.5 g
- Improved Response Over Basal Ration: Feed Efficiency ([3]; 200 g/T): +6.2%
- Improved Response Over Basal Ration: Gain ([3]; 200 g/T): +5.8%
- Average 4 Week Performance: Feed Efficiency ([3]; 400 g/T): 1.678
- Average 4 Week Performance: Gain ([3]; 400 g/T): 751.5 g
- Improved Response Over Basal Ration: Feed Efficiency ([3]; 400 g/T): +2.2%
- Improved Response Over Basal Ration: Gain ([3]; 400 g/T): +1.6%
- response (in words) ([3]; 400 g/T): sharp downturn
- level at which noticeable growth promotion began ([3]; in vivo): 12.5 g/T
- optimum concentration (economics and efficacy) ([3]; in vivo): 25 g/T
- effect on feed efficiency (in words) [4]: strongest response in growth rate and feed efficiency
- growth response (in words) [4]: strongest response in growth rate and feed efficiency
- feed efficiency (in words) [5]: substantial improvement in feed efficiency
- growth rate (in words) [5]: moderate improvement in growth rate
- combination effect (in words) [5, 8]: synergistic effects
- Average 4 Week Performance: Feed Efficiency [5, 8]: 1.666
- Average 4 Week Performance: Gain [5, 8]: 766.4 g
- Improved Response Over Basal Ration: Feed Efficiency [5, 8]: +7.5%
- Improved Response Over Basal Ration: Gain [5, 8]: +4.6%
- Average 4 Week Performance: Feed Efficiency ([5]; 25 g/T in basal ration): 1.677
- Average 4 Week Performance: Gain ([5]; 25 g/T in basal ration): 756.1 g
- Improved Response Over Basal Ration: Feed Efficiency ([5]; 25 g/T in basal ration): +6.9%
- Improved Response Over Basal Ration: Gain ([5]; 25 g/T in basal ration): +3.2%
- Average 4 Week Performance: Feed Efficiency [6]: 1.623
- Average 4 Week Performance: Gain [6]: 762.1 g
- Improved Response Over Basal Ration: Feed Efficiency [6]: +0.7%
- Improved Response Over Basal Ration: Gain [6]: +2.4%
- growth rate / feed efficiency, production parameters (in words) [6]: moderate improvements in production parameters
- Average 4 Week Performance: Feed Efficiency [7]: 1.706
- Average 4 Week Performance: Gain [7]: 695.3 g
- Improved Response Over Basal Ration: Feed Efficiency [7]: +4.4%
- Improved Response Over Basal Ration: Gain [7]: +1.9%
- growth rate / feed efficiency, production parameters (in words) ([7]; 25 g/T, second set of tests): moderate improvements in production parameters

Compound: O=[N+]([O-])c1ccc(C=Cc2nc(Nc3cccc(O)c3)c3ccccc3n2)o1 [Example II, 2-[2-(5-nitro-2-furyl)vinyl]-4-(m-hydroxyanilino)quinazoline]
- Average 4 Week Performance: Feed Efficiency [6]: 1.580
- Average 4 Week Performance: Gain [6]: 773.0 g
- Improved Response Over Basal Ration: Feed Efficiency [6]: +3.3%
- Improved Response Over Basal Ration: Gain [6]: +3.9%
- growth rate / feed efficiency, production parameters (in words) [6]: moderate improvements
- Average 4 Week Performance: Feed Efficiency [7]: 1.672
- Average 4 Week Performance: Gain [7]: 696.4 g
- Improved Response Over Basal Ration: Feed Efficiency [7]: +6.3%
- Improved Response Over Basal Ration: Gain [7]: +2.0%

Compound: CN(C)[C@@H]1C(O)=C(C(N)=O)C(=O)[C@@]2(O)C(O)=C3C(=O)c4c(O)ccc(Cl)c4[C@@](C)(O)[C@H]3C[C@@H]12 [Chlortetracycline, reference compound]
- Average 4 Week Performance: Feed Efficiency [1]: 1.607
- Average 4 Week Performance: Gain [1]: 732.4 gms
- Improved Response Over Basal Ration + Bacitracin: Feed Efficiency [1]: +6.6%
- Improved Response Over Basal Ration + Bacitracin: Gain [1]: +5.5%
- significance of improved feed efficiencies (level of probability) [1]: 99.9%
- significance of improved weight gains (level of probability) [1]: 99.5%
- Average 4 Week Performance: Feed Efficiency [2]: 1.745
- Average 4 Week Performance: Gain [2]: 714.2 g
- Improved Response Over Basal Ration: Feed Efficiency [2]: +0.9%
- Improved Response Over Basal Ration: Gain [2]: -0.9%
- feed efficiency (in words) [5]: moderate improvements in feed efficiencies
- growth rate (in words) [5]: slight improvements in growth rates
- Average 4 Week Performance: Feed Efficiency ([5]; 25 g/T in basal ration): 1.717
- Average 4 Week Performance: Gain ([5]; 25 g/T in basal ration): 752.5 g
- Improved Response Over Basal Ration: Feed Efficiency ([5]; 25 g/T in basal ration): +4.7%
- Improved Response Over Basal Ration: Gain ([5]; 25 g/T in basal ration): +2.7%
